The assay relates to Rescue (dFMR1-3+wild type rescue fragment) flies. In words: Conditioned courtship: immediate recall (0 minute memory), Rescue flies. In kind it is in vivo, Drosophila melanogaster. The procedure: To assess immediate recall (0 minute memory), after the one hour training session with a previously mated female, the male was placed with a virgin target female for a ten-minute interval. This CI was then compared to the courtship level of naive males that had been placed in the training chamber for one hour with no female, before introducing them to a virgin target female for a ten-minute interval. In FIG. 1B the w1118 and Rescue lines show depression of courtship activity after training compared to naive trained males (p<0.005). However, dFMR1-3 and FS mutant lines court just as vigorously after training with a previously mated female as naive trained males, therefore these flies display no experience dependent behavioral plasticity at the time point of immediate recall. This is in spite of the fact that they court to similar levels as w1118 and Rescue lines during the training period. This implicates a deficit in synaptic plasticity for the two mutant lines at immediate recall (0 minute memory). This robust deficit in behavioral plasticity is a critical extension of the previous models of Fragile X syndrome in model organisms, since this has been completely missing in Drosophila models and is subtle in murine models, and particularly since this may be one of the most devastating aspects of the human disease.
Immediate recall. […]

Molecules are shown by their SMILES.

As to `Cc1cccc(C#Cc2ccccc2)n1` [MPEP, 2-methyl-6-(phenylethynyl)pyridine], the immediate recall reads like this: (20-day-old, MPEP in development or adulthood or both) “does not adversely affect immediate recall”; (5 day old, MPEP 200 μg/ml in development or adulthood or both) “does not adversely affect immediate recall”.

The values above are taken from patent US20080187492A1, “Drosophila Models For Diseases Affecting Learning and Memory” (priority 2004, published 2008).
